Experimental data published in PubChem BioAssay (NCI).
Values joined by “and” are separate entries in the source; they are usually repeats but may differ in a detail not shown here. Equal entries are not always repeated.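 Values below derive from 48-hour exposures of cells grown in 96-well plates, with endpoints linearly interpolated between the two concentrations bracketing the appropriate inhibition level. GI50 = concentration required for 50% inhibition of growth. Definition used: TGI = concentration required for complete inhibition of growth.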

Experiments:
Experiment in all cases: NCI-60 cell line screen, 48 h
CCRF-CEM leukemia = test system: CCRF-CEM leukemia
MALME-3M melanoma = test system: MALME-3M melanoma
MOLT-4 leukemia = test system: MOLT-4 leukemia
OVCAR-5 ovarian = test system: OVCAR-5 ovarian
SK-MEL-28 melanoma = test system: SK-MEL-28 melanoma
SK-MEL-5 melanoma = test system: SK-MEL-5 melanoma
SK-OV-3 ovarian = test system: SK-OV-3 ovarian
SR leukemia = test system: SR leukemia
BT-549 breast = test system: BT-549 breast
OVCAR-4 ovarian = test system: OVCAR-4 ovarian

| Structure (SMILES) | TGI (CCRF-CEM leukemia) | TGI (MALME-3M melanoma) [µM] | TGI (MOLT-4 leukemia) | TGI (OVCAR-5 ovarian) | TGI (SK-MEL-28 melanoma) | TGI (SK-MEL-5 melanoma) | TGI (SK-OV-3 ovarian) | TGI (SR leukemia) [µM] | GI50 (BT-549 breast) [µM] | TGI (BT-549 breast) [µM] | GI50 (CCRF-CEM leukemia) | GI50 (MALME-3M melanoma) [µM] | GI50 (MOLT-4 leukemia) | GI50 (OVCAR-4 ovarian) | TGI (OVCAR-4 ovarian) | GI50 (OVCAR-5 ovarian) | GI50 (SK-MEL-28 melanoma) | GI50 (SK-MEL-5 melanoma) | GI50 (SK-OV-3 ovarian) | GI50 (SR leukemia) [µM] |
| --- | --- | --- | --- | --- | --- | --- | --- | --- | --- | --- | --- | --- | --- | --- | --- | --- | --- | --- | --- | --- |
| O=C(O)CNC(=O)c1ccc(-c2ccccc2)cc1 | > 100 µM | > 100 | > 100 µM | > 100 µM | > 100 µM | > 100 µM | > 100 µM | > 100 | – | – | – | – | – | – | – | – | – | – | – | – |
| C(#Cc1ccccc1C#Cc1cccs1)c1cccs1 | > 100 µM | > 100 | 80.1 µM | 83.2 µM | > 100 µM | > 100 µM | > 100 µM | – | > 100 | > 100 | 31.9 µM | 56.9 | 25.8 µM | 83.8 µM | > 100 µM | 25.6 µM | > 100 µM | 23.6 µM | 33.9 µM | – |
| Cc1ccc2nc(NC(=O)C(=O)C(C#N)c3nc4ccccc4s3)sc2c1 (configuration not stated) | – | > 100 | 51.4 µM | > 100 µM | > 100 µM | 45.7 µM | > 100 µM | – | – | – | – | – | – | – | > 100 µM | – | – | – | – | – |
| COc1cc(C(=O)O[C@H](C(=O)NCCCCCNC(=O)[C@@H](OC(=O)c2cc(OC)cc3c(C)cccc23)[C@]2(C)CO2)[C@]2(C)CO2)c2cccc(C)c2c1 | – | – | > 100 µM | 5.61 µM | – | 0.501 µM | > 30.1 µM | – | 1.13 | 5.8 | – | – | < 0.01 µM | 0.877 µM | > 100 µM | 1.52 µM | 0.205 µM | 0.166 µM | 3.28 µM | – |
| COc1ccc(Br)c(N/N=C2\CCCNC2=O)c1 | > 100 µM | > 100 | > 100 µM | > 100 µM | > 100 µM | > 100 µM | > 100 µM | > 100 | – | – | – | – | – | – | > 100 µM | – | – | – | – | – |
| COc1cc(/C=C/C(=O)c2cccc(Nc3nc(Nc4ccccc4)nc(Nc4ccccc4)n3)c2)cc(OC)c1OC | 5.67 µM | 79.3 | 4.38 µM | > 100 µM | 19.6 µM | 23.8 µM | > 100 µM | – | 8.36 | > 100 | 0.904 µM | 18.2 | 1.07 µM | 33.9 µM | > 100 µM | 38.4 µM | 4.02 µM | 2.7 µM | 43.1 µM | – |
| COc1ccc(C2=CC(c3ccc4c(c3)OCO4)c3c(c4ccccc4oc3=O)O2)cc1OC (configuration not stated) | > 100 µM | > 100 | > 100 µM | > 100 µM | > 100 µM | > 100 µM | > 100 µM | – | – | > 100 | – | – | – | – | > 100 µM | – | – | – | – | – |
| CCS(CC)(CC)CC1CCCC2=CCC(P(=O)(c3ccccc3)c3ccccc3)CC21 (configuration not stated) | 31 µM | 40 | 25.2 µM | 30.4 µM | 28.4 µM | 29.8 µM | 28.7 µM | 25.5 | – | – | – | – | – | – | 26 µM | – | – | – | – | – |
| CCC[CH2][Sn]1([CH2]CCC)[O]C(=O)c2cccnc2[O]1 | 3.08 µM | 4.11 | 5.96 µM | 24.2 µM | 11.9 µM | 16.8 µM | 22.1 µM | 6.19 | – | – | 0.731 µM | 1.56 | 2.09 µM | 1.65 µM | 8.57 µM | 11.9 µM | 3.92 µM | 4.57 µM | 10 µM | 1.65 |
| CN1C(=Nc2ccccc2)SC1=Nc1ccccc1 | > 100 µM | 94.3 | > 100 µM | > 100 µM | > 100 µM | > 100 µM | > 100 µM | > 100 | – | – | – | – | – | – | > 100 µM | – | – | – | – | – |
| CN(C)CC/C(=N\Nc1ccc([N+](=O)[O-])cc1)c1ccccc1 | 23.6 µM | 39.9 | 24.5 µM | 28.2 µM | 25.3 µM | 28.5 µM | 29.8 µM | 17.2 | – | – | – | – | – | – | 37.2 µM | – | – | – | – | – |
| O=[N+]([O-])c1cc(C(F)(F)F)cc([N+](=O)[O-])c1CCl | 0.722 µM | 13.1 | 1.39 µM | 10.1 µM | 17.9 µM | 1.75 µM | 14.6 µM | 2.72 | – | – | – | – | – | – | 3.69 µM | – | – | – | – | – |
| Cc1cc(=O)n(-c2ccccc2C)c(C)n1 | > 100 µM | > 100 | > 100 µM | > 100 µM | > 100 µM | > 100 µM | > 100 µM | – | – | – | – | – | – | – | > 100 µM | – | – | – | – | – |
| CCC(C)(CC(C)(C)C(=O)NCC(=O)NC(Cc1ccccc1)C(=O)NC(Cc1ccccc1)C(=O)NCC(=O)NC1CC(OC2CC(O)(C(=O)CO)Cc3c(O)c4c(c(O)c32)C(=O)c2c(OC)cccc2C4=O)OC(C)C1O)C(=O)NCC(C)O (configuration not stated) | > 150 µg/mL | – | 96.6 µg/mL | > 150 µg/mL | > 150 µg/mL | 148 µg/mL | > 150 µg/mL | – | – | – | 3.35 µg/mL and 98.9 µg/mL | – | 7.84 µg/mL | > 150 µg/mL | > 150 µg/mL | > 150 µg/mL | > 150 µg/mL | 28.8 µg/mL | > 150 µg/mL | – |
| COc1cc2c(c(OC)c1OC)-c1ccc(SC)c(=O)cc1C(CO)C2 (configuration not stated) | 2.27 µM | – | > 100 µM | > 100 µM | – | – | 31.8 µM | 23.8 | – | – | < 0.01 µM | < 0.01 | < 0.01 µM | < 0.01 µM | > 100 µM | > 100 µM | – | < 0.01 µM | < 0.01 µM | < 0.01 |
| OC(c1ccccc1)(c1ccccc1)c1ccncc1 | > 100 µM | > 100 | > 100 µM | > 100 µM | > 100 µM | > 100 µM | > 100 µM | > 100 | – | – | – | – | – | – | > 100 µM | – | – | – | – | – |
| CN(CCCn1c2c(c3ccccc3c1=O)C(=O)c1ccccc1-2)CCCn1c2c(c3ccccc3c1=O)C(=O)c1ccccc1-2 | – | 28.4 | 1.06 µM | 3.59 µM | – | > 100 µM | 19.7 µM | – | 22 | 83.1 | – | 1.08 | – | 2.26 µM | > 100 µM | 1.66 µM | 1.28 µM | 6.57 µM | 5.45 µM | – |
| c1ccc2c(c1)cc(C1NCCc3[nH]cnc31)c1ccccc12 (configuration not stated) | > 67.9 µM | > 100 | 61.7 µM | > 100 µM | > 65.5 µM | > 69.8 µM | > 100 µM | 61.1 | – | – | – | – | – | – | > 86.8 µM | – | – | – | – | – |
| O=C1c2ccccc2C(O)(O)C1(O)C1(O)C(=O)c2ccccc2C1(O)O (configuration not stated) | 44.7 µM | 54.3 | – | > 100 µM | > 100 µM | 39.4 µM | > 100 µM | – | – | > 100 | – | – | – | – | > 100 µM | – | – | – | – | – |
